# Results published in article PMC12207360, “Hyperpolarization Modulation of the T‐Type hCav3.2 Channel by Human Synenkephalin [1–53], a Shrew Neurotoxin Analogue without Paralytic Effects” (Angewandte Chemie (International Ed. in English), 2025).
# Marks after values point to notes of the source that are not given here.
# Assays:
# hCav2.2 = conditions: synthetic BPP2; cited from earlier work
# Source text: (§1) The short‐tailed shrew Blarina brevicauda is one of the rare venomous mammals that has potent neurotoxins in its saliva and effectively captures prey such as earthworms and small insects.^[ [25] ^] Since Blarina shrew venom causes severe pain in those bitten,^[ [26] ^] it was predicted that the venom targets specific ion channels related to pain and neurotransmission.^[ [27] ^] Recently, we isolated and characterized Blarina paralytic peptides (BPPs) 1 and 2 as major active substances against mealworms (Figure 1a).^[ [28] ^] BPP2 was chemically synthesized based on the gene sequence of the pre ...
# [1] = tested on: human T-type voltage-gated calcium channel (hCav3.2); conditions: 0.84 µM; synthetic BPP2; cited from earlier work
# Source text: as §1
# [2] = ColabFold-predicted structure, cited from earlier work
# Source text: To compare the structural properties of hSYN and BPP2, we next examined their three‐dimensional structures using ColabFold^[ [64] ^] (a Google Colab version of AlphaFold2^[ [65] ^] using MMSeq2^[ [66] ^]). […] The four helical structures of hSYN were hi ... || Figure 3 Proposed three‐dimensional structures of hSYN and BPP2. a) ColabFold‐predicted structure of hSYN. Disulfide bonds are highlighted in orange sticks. b) Proposed helices in the calculated structures. c) CD spectra of hSYN. Obs: Synthetic 2 (20 µM) was measured in 50 mM potassium phosphate (pH 7.0) at 25 °C. Calc: The ColabFold‐predicted structure was analyzed using the PDBMD2CD server. d) Calculated helicities (%) of each model by three methods based on the CD spectra. e) Superimposed structures of hSYN (blue white) and BPP2 (pale green). Key residues that interact between the helixes a ...
# trypsin = conditions: core N-terminal 1–41 part of BPP2; cited from earlier work
# Protocol: (§2) To determine the connectivity of disulfide bonds in synthetic 2, enzymatic digestion and subsequent fragment peptide analysis were performed. […] However, due to high proteolytic stability, analysis of these degraded products provid ...
# [3] = tested on: glutamyl endopeptidase (Glu-C); conditions: core N-terminal 1–41 part of BPP2; cited from earlier work
# Protocol: as §2
# [4] = tested on: mealworms (larva of Zophobas atratus); conditions: cited from earlier work
# [5] = target: human T-type voltage-gated calcium channel hCav3.2 (human) (UniProt O95180)
# UniProt O95180, sequence (O95180 whole entry): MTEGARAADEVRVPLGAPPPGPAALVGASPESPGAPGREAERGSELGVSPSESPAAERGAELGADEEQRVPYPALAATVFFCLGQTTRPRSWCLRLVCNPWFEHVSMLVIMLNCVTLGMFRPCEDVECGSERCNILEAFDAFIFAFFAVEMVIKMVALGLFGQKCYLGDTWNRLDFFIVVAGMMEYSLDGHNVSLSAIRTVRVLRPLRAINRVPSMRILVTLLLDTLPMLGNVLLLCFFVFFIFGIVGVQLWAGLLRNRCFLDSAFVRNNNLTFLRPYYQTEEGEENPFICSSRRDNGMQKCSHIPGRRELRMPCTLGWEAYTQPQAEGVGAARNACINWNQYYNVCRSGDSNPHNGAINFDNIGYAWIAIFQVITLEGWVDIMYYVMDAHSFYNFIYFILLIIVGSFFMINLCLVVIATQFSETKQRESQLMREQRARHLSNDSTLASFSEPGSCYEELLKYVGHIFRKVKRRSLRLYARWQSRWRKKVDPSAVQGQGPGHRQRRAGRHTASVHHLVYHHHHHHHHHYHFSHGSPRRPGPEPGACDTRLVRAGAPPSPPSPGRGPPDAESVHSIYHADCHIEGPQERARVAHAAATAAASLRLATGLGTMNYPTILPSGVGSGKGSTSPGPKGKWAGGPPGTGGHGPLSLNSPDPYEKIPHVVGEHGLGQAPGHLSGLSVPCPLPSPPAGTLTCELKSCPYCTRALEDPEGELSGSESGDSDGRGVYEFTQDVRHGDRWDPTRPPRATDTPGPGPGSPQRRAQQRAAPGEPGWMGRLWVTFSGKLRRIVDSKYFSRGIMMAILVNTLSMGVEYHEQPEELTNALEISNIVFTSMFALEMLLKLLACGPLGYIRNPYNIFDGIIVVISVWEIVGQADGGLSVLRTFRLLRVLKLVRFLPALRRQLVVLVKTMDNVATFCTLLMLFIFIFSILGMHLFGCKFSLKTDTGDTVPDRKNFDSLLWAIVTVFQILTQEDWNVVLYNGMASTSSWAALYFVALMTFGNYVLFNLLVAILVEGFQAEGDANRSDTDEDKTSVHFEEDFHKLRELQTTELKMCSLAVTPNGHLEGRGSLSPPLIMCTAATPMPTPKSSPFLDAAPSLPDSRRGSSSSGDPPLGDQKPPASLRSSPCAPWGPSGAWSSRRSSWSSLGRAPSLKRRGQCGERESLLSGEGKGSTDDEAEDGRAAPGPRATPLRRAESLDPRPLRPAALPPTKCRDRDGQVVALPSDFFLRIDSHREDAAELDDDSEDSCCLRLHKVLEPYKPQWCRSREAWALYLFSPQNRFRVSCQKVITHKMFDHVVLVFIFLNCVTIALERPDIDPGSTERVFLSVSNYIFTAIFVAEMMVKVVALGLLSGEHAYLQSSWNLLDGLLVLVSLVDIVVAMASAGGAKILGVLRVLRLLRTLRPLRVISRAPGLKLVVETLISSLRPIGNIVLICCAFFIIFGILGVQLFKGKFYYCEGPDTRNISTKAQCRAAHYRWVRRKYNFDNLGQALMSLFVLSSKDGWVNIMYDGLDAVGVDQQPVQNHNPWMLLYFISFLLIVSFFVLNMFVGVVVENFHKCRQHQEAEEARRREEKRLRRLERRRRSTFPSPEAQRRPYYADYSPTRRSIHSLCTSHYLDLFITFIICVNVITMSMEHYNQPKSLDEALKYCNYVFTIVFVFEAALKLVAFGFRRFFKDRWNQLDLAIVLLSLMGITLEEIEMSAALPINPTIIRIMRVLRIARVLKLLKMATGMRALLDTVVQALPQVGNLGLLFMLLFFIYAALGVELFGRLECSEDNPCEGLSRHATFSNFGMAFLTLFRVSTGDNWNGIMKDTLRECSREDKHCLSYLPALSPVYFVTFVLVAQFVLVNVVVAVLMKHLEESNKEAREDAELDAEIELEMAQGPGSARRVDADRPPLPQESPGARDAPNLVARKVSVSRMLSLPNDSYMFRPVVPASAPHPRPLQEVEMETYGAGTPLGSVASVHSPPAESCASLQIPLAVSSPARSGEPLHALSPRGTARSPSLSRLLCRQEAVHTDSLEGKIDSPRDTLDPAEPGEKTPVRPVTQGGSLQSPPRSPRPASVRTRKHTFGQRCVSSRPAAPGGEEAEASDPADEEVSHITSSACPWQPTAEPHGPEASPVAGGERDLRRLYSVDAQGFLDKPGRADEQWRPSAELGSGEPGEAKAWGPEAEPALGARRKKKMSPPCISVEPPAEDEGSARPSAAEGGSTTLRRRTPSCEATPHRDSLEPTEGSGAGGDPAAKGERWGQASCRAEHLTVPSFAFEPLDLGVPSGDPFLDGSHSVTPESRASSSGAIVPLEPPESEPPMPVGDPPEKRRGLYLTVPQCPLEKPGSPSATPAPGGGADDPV
Substance,effect on hCav2.2 (hCav2.2),hyperpolarization shift in the activation of hCav3.2 [1],"Helicity, calculated, BestSel ([2]; BestSel server) [%]","Helicity, calculated, K2D3 ([2]; K2D3 server) [%]","Helicity, calculated, PDBMD2CD ([2]; PDBMD2CD server) [%]",proteolytic stability toward trypsin (trypsin),proteolytic stability toward Glu-C [3],"Paralyzed/total numbers ([4]; i.p., 5.6 µg/g bodyweight)","paralytic effect on mealworms ([4]; synthetic BPP2, intraperitoneal, 5.6 µg g−1 body weight, immediately after administration)","hyperpolarization shift of hCav3.2 activation at 0.74 µM hSYN (2); whole-cell patch clamp on HEK293T cells expressing hCav3.2, n = 5 [5] [mV]"
Blarina paralytic peptide 2 [BPP2],no significant effect on hCav2.2,–11 mV,48.9,54.9,55.7,highly stable,highly stable,3/3 ^b),reliably induces paralysis and convulsions in mealworms,–
"human synenkephalin N-terminal part [1–53] (hSYN), Type II disulfide bond connectivity, synthetic compound 2 (peptide)",–,–,–,–,–,–,–,–,–,-15
